Test results published in PubChem BioAssay AID248 (DTP/NCI, 2004).
“And” between values parts separate entries of the source, which are not always exact repeats. Equal entries are not always repeated. Inconclusive results and toxic doses are left out.

System: L1210 leukemia ip in BDF1 mice, survival T/C
Test: NCI In Vivo Anticancer Drug Screen. Data for tumor model L1210 Leukemia (intraperitoneal) in B6D2F1 (BDF1) mice
Settings: higher = longer survival
Outline: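 Tumor cells were implanted, animals were treated, and survival was followed. The result divides the treated measurement by the vehicle-control measurement.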

[1] = endpoint: mean survival time, dose: 100.0 mg/kg/injection, schedule: Q04DX003 (ip), vehicle: Klucel (hydroxypropylcellulose) (HPC)
[2] = endpoint: mean survival time, dose: 200.0 mg/kg/injection, schedule: Q04DX003 (ip), vehicle: Klucel (hydroxypropylcellulose) (HPC)
[3] = endpoint: mean survival time, dose: 400.0 mg/kg/injection, schedule: Q04DX003 (ip), vehicle: Klucel (hydroxypropylcellulose) (HPC)
[4] = endpoint: mean survival time, dose: 100.0 mg/kg/injection, schedule: Q01DX001 (ip), vehicle: saline
[5] = endpoint: mean survival time, dose: 200.0 mg/kg/injection, schedule: Q01DX001 (ip), vehicle: saline
[6] = endpoint: mean survival time, dose: 400.0 mg/kg/injection, schedule: Q01DX001 (ip), vehicle: saline
[7] = endpoint: mean survival time, dose: 100.0 mg/kg/injection, schedule: Q04DX003 (ip), vehicle: saline with Tween-80
[8] = endpoint: mean survival time, dose: 200.0 mg/kg/injection, schedule: Q04DX003 (ip), vehicle: saline with Tween-80
[9] = endpoint: mean survival time, dose: 400.0 mg/kg/injection, schedule: Q04DX003 (ip), vehicle: saline with Tween-80
[10] = endpoint: mean survival time, dose: 25.0 mg/kg/injection, schedule: Q01DX009 (ip), vehicle: Klucel (hydroxypropylcellulose) (HPC)
[11] = endpoint: mean survival time, dose: 100.0 mg/kg/injection, schedule: Q01DX009 (ip), vehicle: saline with Tween-80
[12] = endpoint: mean survival time, dose: 200.0 mg/kg/injection, schedule: Q01DX009 (ip), vehicle: saline with Tween-80
[13] = endpoint: mean survival time, dose: 400.0 mg/kg/injection, schedule: Q01DX009 (ip), vehicle: saline with Tween-80
[14] = endpoint: mean survival time, dose: 100.0 mg/kg/injection, schedule: Q01DX009 (ip), vehicle: Klucel (hydroxypropylcellulose) (HPC)
[15] = endpoint: mean survival time, dose: 400.0 mg/kg/injection, schedule: Q01DX009 (ip), vehicle: Klucel (hydroxypropylcellulose) (HPC)

CC(=O)N(C)c1ccc(/C=C2\C=Cc3ccccc32)cc1
T/C (endpoint: mean survival time, dose: 50.0 mg/kg/injection, schedule: Q01DX001 (ip), vehicle: carboxymethylcellulose (CMC)): 96 % of control
T/C (endpoint: mean survival time, dose: 100.0 mg/kg/injection, schedule: Q01DX001 (ip), vehicle: carboxymethylcellulose (CMC)): 98 % of control
T/C (endpoint: mean survival time, dose: 200.0 mg/kg/injection, schedule: Q01DX001 (ip), vehicle: carboxymethylcellulose (CMC)): 96 % of control
T/C (endpoint: mean survival time, dose: 400.0 mg/kg/injection, schedule: Q01DX001 (ip), vehicle: carboxymethylcellulose (CMC)): 96 % of control

CCSc1nc(C=O)c(Cc2ccccc2)c(=O)[nH]1
T/C [1]: 101 % of control
T/C [2]: 103 % of control
T/C [3]: 98 % of control

O=C(CCCC(=O)N/N=C/c1c2ccccc2cc2ccccc12)N/N=C/c1c2ccccc2cc2ccccc12
T/C (endpoint: mean survival time, dose: 50.0 mg/kg/injection, schedule: Q01DX001 (ip), vehicle: saline): 100 % of control
T/C [4]: 102 % of control
T/C [5]: 96 % of control
T/C [6]: 96 % of control

CC(C)C(NC(=O)CCNC(=O)OCc1ccccc1)C(=O)OCc1ccccc1 (configuration not stated)
T/C [7]: 93 % of control
T/C [8]: 92 % of control
T/C [9]: 95 % of control

CC(=O)Oc1c2c(c(OC(C)=O)c3c1C(=O)c1ccccc1C3=O)CCCC2
T/C [4]: 98 % of control
T/C [5]: 92 % of control
T/C [6]: 98 % of control

CC(=O)Nc1ccc2c(Nc3ccc(NS(C)(=O)=O)cc3)c3ccccc3nc2c1
T/C (endpoint: mean survival time, dose: 0.8 mg/kg/injection, schedule: Q01DX009 (ip), vehicle: Klucel (hydroxypropylcellulose) (HPC)): 151 % of control
T/C (endpoint: mean survival time, dose: 1.5 mg/kg/injection, schedule: Q01DX009 (sc), vehicle: saline): 156 % of control
T/C (endpoint: mean survival time, dose: 1.6 mg/kg/injection, schedule: Q01DX009 (ip), vehicle: Klucel (hydroxypropylcellulose) (HPC)): 159 % of control
T/C (endpoint: mean survival time, dose: 3.1 mg/kg/injection, schedule: Q01DX009 (ip), vehicle: Klucel (hydroxypropylcellulose) (HPC)): 180 % of control
T/C (endpoint: mean survival time, dose: 5.4 mg/kg/injection, schedule: Q01DX009 (ip), vehicle: saline with Tween-80): 228 % of control
T/C (endpoint: mean survival time, dose: 6.25 mg/kg/injection, schedule: Q01DX009 (ip), vehicle: Klucel (hydroxypropylcellulose) (HPC)): 281 % of control
T/C (endpoint: mean survival time, dose: 8.0 mg/kg/injection, schedule: Q01DX009 (ip), vehicle: saline with Tween-80): 176 % of control
T/C (endpoint: mean survival time, dose: 12.0 mg/kg/injection, schedule: Q01DX009 (ip), vehicle: saline with Tween-80): 171 % of control
T/C (endpoint: mean survival time, dose: 12.5 mg/kg/injection, schedule: Q01DX009 (ip), vehicle: saline with Tween-80): 165 % of control
T/C (endpoint: mean survival time, dose: 12.5 mg/kg/injection, schedule: Q01DX009 (sc), vehicle: saline): 152 % of control
T/C (endpoint: mean survival time, dose: 18.0 mg/kg/injection, schedule: Q01DX009 (ip), vehicle: saline with Tween-80): 93 % of control
T/C [10]: 93 % of control

CC(Cc1ccccc1)NN (configuration not stated)
T/C (endpoint: mean survival time, dose: 3.9 mg/kg/injection, schedule: Q01DX009 (ip), vehicle: saline): 93 % of control
T/C (endpoint: mean survival time, dose: 7.81 mg/kg/injection, schedule: Q01DX009 (ip), vehicle: saline): 96 % of control
T/C (endpoint: mean survival time, dose: 15.62 mg/kg/injection, schedule: Q01DX009 (ip), vehicle: saline): 93 % of control
T/C (endpoint: mean survival time, dose: 15.62 mg/kg/injection, schedule: Q04DX003 (ip), vehicle: saline): 107 % of control
T/C (endpoint: mean survival time, dose: 31.25 mg/kg/injection, schedule: Q04DX003 (ip), vehicle: saline): 98 % of control
T/C (endpoint: mean survival time, dose: 62.5 mg/kg/injection, schedule: Q04DX003 (ip), vehicle: saline): 104 % of control

CC(C)(C)NC(=O)Nc1ccccn1
T/C [11]: 102 % of control and 112 % of control
T/C (endpoint: mean survival time, dose: 100.0 mg/kg/injection, schedule: Q04DX002 (ip), vehicle: saline with Tween-80): 96 % of control
T/C [7]: 97 % of control
T/C [12]: 112 % of control and 91 % of control
T/C (endpoint: mean survival time, dose: 200.0 mg/kg/injection, schedule: Q04DX002 (ip), vehicle: saline with Tween-80): 108 % of control and 115 % of control
T/C [8]: 115 % of control
T/C [13]: 104 % of control
T/C (endpoint: mean survival time, dose: 400.0 mg/kg/injection, schedule: Q04DX002 (ip), vehicle: saline with Tween-80): 94 % of control and 96 % of control

NC(=O)C(CC(=O)OCc1ccccc1)NC(=O)OCc1ccccc1 (configuration not stated)
T/C [11]: 92 % of control
T/C [12]: 90 % of control
T/C [13]: 97 % of control

CCOP(=O)(CCO)OCC
T/C (endpoint: mean survival time, dose: 50.0 mg/kg/injection, schedule: Q01DX005 (ip), vehicle: saline): 106 % of control
T/C (endpoint: mean survival time, dose: 100.0 mg/kg/injection, schedule: Q01DX005 (ip), vehicle: saline): 106 % of control
T/C (endpoint: mean survival time, dose: 200.0 mg/kg/injection, schedule: Q01DX005 (ip), vehicle: saline): 95 % of control
T/C (endpoint: mean survival time, dose: 400.0 mg/kg/injection, schedule: Q01DX005 (ip), vehicle: saline): 104 % of control

CCP(=S)(CC)CCCCCP(=S)(CC)CC
T/C [7]: 92 % of control
T/C [8]: 95 % of control
T/C [9]: 87 % of control

C=C(C)C1(Cc2ccccc2)C(=O)NC(=O)NC1=O
T/C (endpoint: mean survival time, dose: 75.0 mg/kg/injection, schedule: Q01DX001 (ip), vehicle: saline): 98 % of control

CSc1nn[nH]n1
T/C (endpoint: mean survival time, dose: 25.0 mg/kg/injection, schedule: Q01DX009 (ip), vehicle: acetone): 93 % of control
T/C (endpoint: mean survival time, dose: 50.0 mg/kg/injection, schedule: Q01DX009 (ip), vehicle: acetone): 96 % of control
T/C (endpoint: mean survival time, dose: 50.0 mg/kg/injection, schedule: Q04DX003 (ip), vehicle: saline): 92 % of control
T/C (endpoint: mean survival time, dose: 100.0 mg/kg/injection, schedule: Q01DX001 (ip), vehicle: acetone): 98 % of control
T/C (endpoint: mean survival time, dose: 100.0 mg/kg/injection, schedule: Q01DX009 (ip), vehicle: acetone): 91 % of control
T/C (endpoint: mean survival time, dose: 100.0 mg/kg/injection, schedule: Q04DX003 (ip), vehicle: saline): 97 % of control
T/C (endpoint: mean survival time, dose: 200.0 mg/kg/injection, schedule: Q01DX001 (ip), vehicle: acetone): 93 % of control

CCCCOc1ccc(C=Nc2ccc(C)cc2)cc1
T/C (endpoint: mean survival time, dose: 12.5 mg/kg/injection, schedule: Q01DX009 (ip), vehicle: Klucel (hydroxypropylcellulose) (HPC)): 110 % of control
T/C [10]: 109 % of control
T/C (endpoint: mean survival time, dose: 50.0 mg/kg/injection, schedule: Q01DX009 (ip), vehicle: Klucel (hydroxypropylcellulose) (HPC)): 103 % of control
T/C [14]: 93 % of control
T/C [1]: 97 % of control
T/C [2]: 95 % of control
T/C [15]: 92 % of control
T/C [3]: 107 % of control

C#CC(C)ON1C(=O)c2ccccc2C1=O (configuration not stated)
T/C (endpoint: mean survival time, dose: 100.0 mg/kg/injection, schedule: Q01DX009 (ip), vehicle: saline sonified): 96 % of control
T/C [7]: 115 % of control
T/C (endpoint: mean survival time, dose: 200.0 mg/kg/injection, schedule: Q01DX009 (ip), vehicle: saline sonified): 97 % of control
T/C [8]: 114 % of control
T/C (endpoint: mean survival time, dose: 400.0 mg/kg/injection, schedule: Q01DX009 (ip), vehicle: saline sonified): 104 % of control
T/C [9]: 109 % of control

Nc1ccccc1C(=O)NO
T/C [4]: 98 % of control
T/C [5]: 97 % of control
T/C [6]: 97 % of control

CCC(=O)C(CC)c1ccc(OC)cc1OC (configuration not stated)
T/C [14]: 93 % of control
T/C [1]: 103 % of control
T/C (endpoint: mean survival time, dose: 200.0 mg/kg/injection, schedule: Q01DX009 (ip), vehicle: Klucel (hydroxypropylcellulose) (HPC)): 95 % of control
T/C [2]: 101 % of control
T/C [15]: 98 % of control
T/C [3]: 103 % of control

CN(C)N=Nc1cccc(C(N)=O)c1
T/C (endpoint: mean survival time, dose: 5.0 mg/kg/injection, schedule: Q01DX009 (ip), vehicle: Klucel (hydroxypropylcellulose) (HPC)): 104 % of control
T/C (endpoint: mean survival time, dose: 10.0 mg/kg/injection, schedule: Q01DX009 (ip), vehicle: Klucel (hydroxypropylcellulose) (HPC)): 115 % of control
T/C (endpoint: mean survival time, dose: 20.0 mg/kg/injection, schedule: Q01DX009 (ip), vehicle: Klucel (hydroxypropylcellulose) (HPC)): 121 % of control
T/C (endpoint: median survival time, dose: 39.0 mg/kg/injection, schedule: Q01DX009 (ip), vehicle: steriod suspending solution): 150 % of control
T/C (endpoint: median survival time, dose: 65.0 mg/kg/injection, schedule: Q01DX001 (ip), vehicle: steriod suspending solution): 105 % of control
T/C (endpoint: median survival time, dose: 65.0 mg/kg/injection, schedule: Q01DX009 (ip), vehicle: steriod suspending solution): 95 % of control
T/C (endpoint: median survival time, dose: 108.0 mg/kg/injection, schedule: Q01DX001 (ip), vehicle: steriod suspending solution): 120 % of control
T/C (endpoint: median survival time, dose: 180.0 mg/kg/injection, schedule: Q04DX003 (ip), vehicle: steriod suspending solution): 105 % of control
